Results on five molecules are retold here after BindingDB's records for doi:10.1002/cbic.200300842 (University of Georgia, 2004).

SMILES strings stand for the structures. Several values for one entry are separate records, joined by “and”; a condition that tells them apart may be missing. Identical values can stand only once.

For the assay, the target named is T1, Alpha-mannosidase 2 (Homo sapiens, UniProt Q16706).
T1 sequence (Q16706 whole entry): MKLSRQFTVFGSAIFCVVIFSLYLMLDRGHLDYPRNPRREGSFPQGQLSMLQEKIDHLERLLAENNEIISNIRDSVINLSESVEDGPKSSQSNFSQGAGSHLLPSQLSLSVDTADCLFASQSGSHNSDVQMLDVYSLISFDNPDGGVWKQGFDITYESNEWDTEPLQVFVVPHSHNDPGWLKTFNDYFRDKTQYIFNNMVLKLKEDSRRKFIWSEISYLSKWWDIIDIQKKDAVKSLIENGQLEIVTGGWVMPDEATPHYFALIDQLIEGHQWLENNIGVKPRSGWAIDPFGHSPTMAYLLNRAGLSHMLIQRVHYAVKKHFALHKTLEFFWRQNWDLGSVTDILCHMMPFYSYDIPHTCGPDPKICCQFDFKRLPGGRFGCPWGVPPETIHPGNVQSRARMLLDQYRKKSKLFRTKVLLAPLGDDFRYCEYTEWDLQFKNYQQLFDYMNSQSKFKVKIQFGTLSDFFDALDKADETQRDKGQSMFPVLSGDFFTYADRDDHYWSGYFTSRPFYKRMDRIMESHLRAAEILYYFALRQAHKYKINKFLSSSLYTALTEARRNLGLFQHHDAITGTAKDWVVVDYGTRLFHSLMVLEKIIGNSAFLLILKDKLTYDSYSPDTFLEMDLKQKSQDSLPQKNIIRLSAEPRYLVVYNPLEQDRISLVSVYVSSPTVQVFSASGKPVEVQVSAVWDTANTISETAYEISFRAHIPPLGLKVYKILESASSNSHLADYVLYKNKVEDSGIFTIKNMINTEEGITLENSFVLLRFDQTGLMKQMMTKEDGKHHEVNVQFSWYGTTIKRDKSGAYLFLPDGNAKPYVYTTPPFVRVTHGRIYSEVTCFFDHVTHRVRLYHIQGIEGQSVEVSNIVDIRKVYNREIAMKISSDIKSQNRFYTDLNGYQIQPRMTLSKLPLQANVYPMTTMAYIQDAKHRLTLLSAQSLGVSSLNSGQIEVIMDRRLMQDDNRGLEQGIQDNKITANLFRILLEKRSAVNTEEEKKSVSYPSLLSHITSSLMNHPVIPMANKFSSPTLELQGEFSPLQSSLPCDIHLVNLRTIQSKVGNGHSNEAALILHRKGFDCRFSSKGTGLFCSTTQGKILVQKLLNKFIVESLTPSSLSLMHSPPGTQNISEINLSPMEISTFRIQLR
The note with it: pH 5.6; 37 °C.

What is called Ki is a dissociation constant, usually derived from enzyme kinetics or from competition with a known ligand. The low end stands for higher affinity, the high end for lower affinity. `CS[C@H]1[C@H](O)[C@H](O)[C@H](O)[C@@H]1NCc1ccc(F)cc1` [Benzylation of mannostatin A, 1c]: the Ki was 530 nM and 170 nM.

As to `CS[C@H]1[C@H](O)[C@H](O)[C@H](O)[C@@H]1NCc1ccc(Cl)cc1` [Benzylation of mannostatin A, 1d], the Ki was 910 nM and 100 nM.

Take `COc1ccc(CN[C@H]2[C@@H](O)[C@@H](O)[C@@H](O)[C@@H]2SC)cc1` [Benzylation of mannostatin A, 1f]: the Ki is 520 nM and 100 nM.

With `CS[C@@H]1[C@@H](N)[C@@H](O)[C@@H](O)[C@H]1O` [Mannostatin A, 1], the Ki is 210 nM and 90 nM.

With `N[C@H]1[C@@H](O)[C@@H](O)[C@@H](O)[C@H]1O` [Mannostatin analogue, 4b], the Ki is 50000 nM and 6600 nM.
